Reference: patent US9694040B2, “Hydrogenation of cannabis oil” (priority 2015, dated 2017)

Test system: U87 (Human glioblastoma)
Assay: U87 glioblastoma subcutaneous xenograft tumor growth, excised tumor weight
Assay type: in vivo
Settings: for effect on tumor weight versus untreated vehicle: female athymic mice with U87 implants, 10 mg/kg body weight fed, compared with Vehicle 73.8 mg; for Tumor weight: female athymic mice, subcutaneous U87 implants (two per mouse), fed 10 mg/kg body weight, tumors excised and weighed at termination (about one week of treatment), average of six tumors, Vehicle 73.8 mg
Procedure: The effect of the hydrogenated and non-hydrogenated cannabis oil on tumor growth and angiogenesis were evaluated by implanting U87 (Human glioblastoma) 3×10^6 cells (50% matrigel) in […] female athymic mice. The site of implantation was subcutaneous with two implants per mouse. The date of implantation was Feb. 1, 2016 and the date of administering treatment was Feburary 3, 2016. There were three mice in each of the following groups, and the treatment consisted of feeding each of the three mice 10 mg/kg body weight of the treatment corresponding to each one of the following groups: • 1. Untreated Vehicle • 2. THCA • 3. CBDA • 4. HCBDA • 5. HTHCA
The termination date was Feb. 11, 2016. On this date, the tumors were excised and weighed. The results are shown in Table 1 and illustrated in the below plot.
It was assumed that the excised tumor weight for the “Untreated Vehicle” was essentially equivalent to its starting tumor weight.

SMILES	effect on tumor weight versus untreated vehicle	Tumor weight
C=C(C)[C@@H]1CCC(C)=C[C@H]1c1c(O)cc(CCCCC)c(C(=O)O)c1O [CBDA, Δ-9-cannabidiolic acid]	effective to reduce tumor weight	39.1 mg
CCCCCc1cc(O)c([C@@H]2CC(C)CC[C@H]2C(C)C)c(O)c1C(=O)O (some centres unmarked) [HCBDA, hydrogenated 9-cannabidioc acid]	effective to reduce tumor weight	32.6 mg
CCCCCc1cc2c(c(O)c1C(=O)O)[C@@H]1CC(C)CC[C@H]1C(C)(C)O2 (some centres unmarked) [HTHCA, hydrogenated 9-tetrahydrocannabinoic acid]	effective to reduce tumor weight	44.5 mg
CCCCCc1cc2c(c(O)c1C(=O)O)[C@@H]1C=C(C)CC[C@H]1C(C)(C)O2 [THCA, Δ-9-tetrahydrocannabinoic acid]	effective to reduce tumor weight	46.0 mg
